Laboratory results from patent US20250295648A1 (priority 2024, published 2025).
“And” between values parts separate entries of the source, which are not always exact repeats. Equal entries are not always repeated.

Experiments:
[1] = system: L-DOPA-induced dyskinesia in Parkinson's disease patients; test: Unified Dyskinesia Rating Scale (UDysRS) after 150% L-DOPA challenge; conditions: for UDysRS Parts 3 + 4, highest score of assessment sessions, mean change from baseline / UDysRS Part 3 sum of items, average of assessment sessions, mean change from baseline / UDysRS Part 3 sum of items, highest score of assessment sessions, mean change from baseline / UDysRS Parts 3 + 4, average of assessment sessions, mean change from baseline / UDysRS Total (Parts 1 to 4), average of assessment sessions, mean change from baseline / UDysRS Total (Parts 1 to 4), highest score of assessment sessions, mean change from baseline: per-protocol set; for UDysRS Part 3 sum of items, average of assessment sessions, mean change from baseline: p < 0.05 vs placebo
Description: Patients were rated for dyskinesia at baseline and on days 28 (at end of up-titration period) and 42 (end of stable dosing period). Because the level of dyskinesia experienced by patients can vary over time, they were given 150% (i.e., 1.5×) of their regular L-DOPA dose (up to a maximum of 250 mg) as a challenge 30 min before each dyskinesia assessment to improve comparability between patients and between visits. Patients were filmed 30, 60 and 90 min after dosing with L-DOPA (˜5 min of filming each time). LID was assessed using the Unified Dyskinesia Rating Scale (UDysRS). Changes from baseline are shown for total score (i.e., Parts 1 to 4), for total objective score (i.e., Parts 3+4), and for the sum of Part 3 objective impairment assessment scores. Because objective LID assessment was carried out at 3 time-points (30, 60 and 90 min) following L-DOPA challenge, the above parameters were analyzed based on the most severe of the three scores as well as on the average score of the 3 time points.
The patient took 150% of their normal L-DOPA dose 30 minutes prior to the start of efficacy assessments (UDysRS) at Day 1 (Visit 2), Day 28 (Visit 6) and Day 42 (Visit 7).
The UDysRS is a rating instrument designed to assess the core features of dyskinesia in Parkinson's Disease. The UDysRS consists of 4 parts: • r. Part I, historical disability with regard to the patient's perceptions of the impact on activities of ADL of on-dyskinesia. • s. Part II, historical disability with regard to the patient's perceptions of the impact on ADL of off-dystonia. • t. Part III, objective impairment, which assesses severity of dyskinesia, affected body parts, and type of impairment (choreic vs. dystonic). • u. Part IV, objective disability, based on an evaluation of Part III activities.
Each item in the UDysRS is scored from 0 to 4, with a possible maximum total score of 104.
The UDysRS assessment would be performed at baseline (Day 1, Visit 2), Day 28 and Day 42 (Visits 6 and 7) starting approximately 30 minutes after the L-DOPA challenge on these days.
The data for all 3 assessments performed at each visit would be entered in the eCRF and the Investigator will highlight which of the assessments, corresponding to the assessment where the patient had most severe dyskinesia, that would be used in the descriptive summaries of data.
Change from baseline in the UDysRS total score to Visit 6 (Day 28) and Visit 7 (Day 42) respectively would be summarized using descriptive statistics. […] The same analysis would be done for UDysRS total objective score Part III and IV only.
The baseline value of the dependent variable has been included in the model as a continuous covariate.

PD patients with LID = test: ICIQ Overactive Bladder Module (ICIQ-OAB); format: in vivo, human; conditions: for ICIQ-OAB, mean change from baseline: per-protocol set
Excerpt: The ICIQ-OAB provides a brief and robust measure to assess the impact of symptoms of overactive bladder on quality of life and outcome of treatment. It is a 4-item patient reported outcome covering 4 domains of bladder function: frequency, nocturia, urgency, and urge urinary incontinence. Each item is scored by frequency of 0-4, for a total score of 0-16. Ratings would be based on the previous month or since the last clinic visit. Efficacy would be assessed as change from the baseline total score.

[2] = Visit 6 Clinic Efficacy Visit (Day 28), per protocol analysis set, N = 15
[3] = Visit 7 Clinic Efficacy Visit (Day 42), per protocol analysis set, N = 15
[4] = days 28 and 42, within NLX-112 group
[5] = individual patients A-E co-treated with amantadine
[6] = per-protocol set (n = 15), Baseline
[7] = Δ D 28 (end of up-titration), p < 0.01 vs baseline
[8] = Δ D 42 (end of stable dosing), p < 0.001 vs baseline
[9] = Δ D 42 (end of stable dosing), p < 0.01 vs baseline

Compound: Cc1ccc(CNCC2(F)CCN(C(=O)c3ccc(F)c(Cl)c3)CC2)nc1 [NLX-112, (3-chloro-4-fluoro-phenyl)-[4-fluoro-4-{[(5-methyl-pyridin-2-ylmethyl)-amino]-methyl}piperidin-1-yl]methanone]
- UDysRS Parts 1, 2, 3, and 4 average, absolute change from baseline, median [1, 2]: −3.00
- UDysRS Parts 1, 2, 3, and 4 average, collected value, mean [1, 2]: 25.33
- UDysRS Parts 1, 2, 3, and 4 average, collected value, median [1, 2]: 25.33
- UDysRS Parts 1, 2, 3, and 4 average, relative change from baseline (%), mean [1, 2]: −9.33%
- UDysRS Parts 1, 2, 3, and 4 average, relative change from baseline (%), median [1, 2]: −10.6%
- UDysRS Parts 1, 2, 3, and 4 most severe, absolute change from baseline, mean [1, 2]: −4.1
- UDysRS Parts 1, 2, 3, and 4 most severe, absolute change from baseline, median [1, 2]: −2.0
- UDysRS Parts 1, 2, 3, and 4 most severe, collected value, mean [1, 2]: 27.5
- UDysRS Parts 1, 2, 3, and 4 most severe, collected value, median [1, 2]: 28.0
- UDysRS Parts 1, 2, 3, and 4 most severe, relative change from baseline (%), mean [1, 2]: −10.2%
- UDysRS Parts 1, 2, 3, and 4 most severe, relative change from baseline (%), median [1, 2]: −6.45%
- UDysRS Parts 3 and 4 average, absolute change from baseline, mean [1, 2]: −2.49
- UDysRS Parts 3 and 4 average, absolute change from baseline, median [1, 2]: −1.67
- UDysRS Parts 3 and 4 average, collected value, mean [1, 2]: 11.60
- UDysRS Parts 3 and 4 average, collected value, median [1, 2]: 10.33
- UDysRS Parts 3 and 4 average, relative change from baseline (%), mean [1, 2]: −17.3%
- UDysRS Parts 3 and 4 average, relative change from baseline (%), median [1, 2]: −20.0%
- UDysRS Parts 3 and 4 most severe, absolute change from baseline, mean [1, 2]: −1.7
- UDysRS Parts 3 and 4 most severe, absolute change from baseline, median [1, 2]: −1.0
- UDysRS Parts 3 and 4 most severe, collected value, mean [1, 2]: 13.8
- UDysRS Parts 3 and 4 most severe, collected value, median [1, 2]: 12.0
- UDysRS Parts 3 and 4 most severe, relative change from baseline (%), mean [1, 2]: −15.8%
- UDysRS Parts 3 and 4 most severe, relative change from baseline (%), median [1, 2]: −8.33%
- UDysRS Parts 1, 2, 3, and 4 average, absolute change from baseline, mean [1, 3]: −6.51
- UDysRS Parts 1, 2, 3, and 4 average, absolute change from baseline, median [1, 3]: −7.67
- UDysRS Parts 1, 2, 3, and 4 average, collected value, mean [1, 3]: 23.64
- UDysRS Parts 1, 2, 3, and 4 average, collected value, median [1, 3]: 23.00
- UDysRS Parts 1, 2, 3, and 4 average, relative change from baseline (%), mean [1, 3]: −19.5%
- UDysRS Parts 1, 2, 3, and 4 average, relative change from baseline (%), median [1, 3]: −21.9%
- UDysRS Parts 1, 2, 3, and 4 most severe, absolute change from baseline, mean [1, 3]: −6.3
- UDysRS Parts 1, 2, 3, and 4 most severe, absolute change from baseline, median [1, 3]: −8.0
- UDysRS Parts 1, 2, 3, and 4 most severe, collected value, mean [1, 3]: 25.3
- UDysRS Parts 1, 2, 3, and 4 most severe, collected value, median [1, 3]: 24.0
- UDysRS Parts 1, 2, 3, and 4 most severe, relative change from baseline (%), mean [1, 3]: −19.0%
- UDysRS Parts 1, 2, 3, and 4 most severe, relative change from baseline (%), median [1, 3]: −25.8%
- UDysRS Parts 3 and 4 average, absolute change from baseline, mean [1, 3]: −3.31
- UDysRS Parts 3 and 4 average, absolute change from baseline, median [1, 3]: −3.33
- UDysRS Parts 3 and 4 average, collected value, mean [1, 3]: 10.78
- UDysRS Parts 3 and 4 average, collected value, median [1, 3]: 9.67
- UDysRS Parts 3 and 4 average, relative change from baseline (%), mean [1, 3]: −25.3%
- UDysRS Parts 3 and 4 average, relative change from baseline (%), median [1, 3]: −31.5%
- UDysRS Parts 3 and 4 most severe, absolute change from baseline, mean [1, 3]: −3.1
- UDysRS Parts 3 and 4 most severe, absolute change from baseline, median [1, 3]: −4.0
- UDysRS Parts 3 and 4 most severe, collected value, mean [1, 3]: 12.4
- UDysRS Parts 3 and 4 most severe, collected value, median [1, 3]: 11.0
- UDysRS Parts 3 and 4 most severe, relative change from baseline (%), mean [1, 3]: −21.0%
- UDysRS Parts 3 and 4 most severe, relative change from baseline (%), median [1, 3]: −31.6%
- UDysRS sum of Part 3 items, average of all 3 assessments, NLX-112 vs placebo ([1]; day 28 and day 42): significantly greater change from baseline
- net reduction in UDysRS total score, more than placebo ([1]; day 42): 3.9 points
- UDysRS sum of Part 3 items, most severe assessment, vs baseline [1, 4]: significant reduction
- UDysRS total score based on the average of 3 assessments, vs baseline [1, 4]: significant reduction
- UDysRS Part 3 + 4, Δ from baseline [1, 5]: +3 and +2 and −11 and −6 (2×)
- UDysRS Total, Δ from baseline [1, 5]: −2 and +7 and −11 and −8 and −6
- amantadine-using patients with numerical reductions in UDysRS total score and total objective score ([1]; of the 5 amantadine-using patients on NLX-112): 3
- UDysRS Part 3 sum of items, average of assessment sessions, mean [1, 6]: 21.5
- UDysRS Part 3 sum of items, highest score of assessment sessions, mean [1, 6]: 24.7
- UDysRS Parts 3 + 4, average of assessment sessions, mean [1, 6]: 14.1
- UDysRS Parts 3 + 4, highest score of assessment sessions, mean [1, 6]: 15.5
- UDysRS Total (Parts 1 to 4), average of assessment sessions, mean [1, 6]: 30.1
- UDysRS Total (Parts 1 to 4), highest score of assessment sessions, mean [1, 6]: 31.6
- UDysRS Parts 3 + 4, highest score of assessment sessions, mean change from baseline ([1]; Δ D 28 (end of up-titration)): −1.7
- UDysRS Part 3 sum of items, average of assessment sessions, mean change from baseline ([1]; Δ D 28 (end of up-titration), p < 0.001 vs baseline): −5.5
- UDysRS Part 3 sum of items, highest score of assessment sessions, mean change from baseline [1, 7]: −5.5
- UDysRS Parts 3 + 4, average of assessment sessions, mean change from baseline [1, 7]: −2.5
- UDysRS Total (Parts 1 to 4), average of assessment sessions, mean change from baseline [1, 7]: −4.8
- UDysRS Total (Parts 1 to 4), highest score of assessment sessions, mean change from baseline ([1]; Δ D 28 (end of up-titration), p < 0.05 vs baseline): −4.1
- UDysRS Part 3 sum of items, average of assessment sessions, mean change from baseline ([1]; Δ D 42 (end of stable dosing), p < 0.0001 vs baseline): −7.1
- UDysRS Part 3 sum of items, highest score of assessment sessions, mean change from baseline [1, 8]: −7.8
- UDysRS Parts 3 + 4, average of assessment sessions, mean change from baseline [1, 8]: −3.3
- UDysRS Total (Parts 1 to 4), average of assessment sessions, mean change from baseline [1, 8]: −6.5
- UDysRS Parts 3 + 4, highest score of assessment sessions, mean change from baseline [1, 9]: −3.1
- UDysRS Total (Parts 1 to 4), highest score of assessment sessions, mean change from baseline [1, 9]: −6.3
- incontinence (ICIQ-OAB) (PD patients with LID; Days 28 or 42): no consistent statistically significant effect
- ICIQ-OAB, mean (PD patients with LID; [6]): 18.3
- ICIQ-OAB, mean change from baseline (PD patients with LID; Δ D 28 (end of up-titration)): 0.7
- ICIQ-OAB, mean change from baseline (PD patients with LID; Δ D 42 (end of stable dosing)): −0.8
